Experimental data: patent US6683114B2, “Treatment of psoriasis” (Eli Lilly and Company, priority 2000, dated 2004)
Counter-ions that a name gives are not always drawn.

Test system: plaque-like psoriasis
Assay: Treatment of a subject with moderately severe plaque-like psoriasis (case report, Example 1)
Format: in vivo, human
Conditions: person, plaque-like psoriasis of legs; 60 mg twice daily for 12 consecutive days
Protocol: The subject presented with moderately severe plaque-like psoriasis of their legs. The subject had suffered from psoriasis for most of their life, and the condition had worsened immediately prior to the present study. […] The subject was treated with 60 mg of tomoxetine hydrochloride, twice daily for 12 consecutive days.

CNCC[C@@H](Oc1ccccc1C)c1ccccc1 [tomoxetine hydrochloride, (R)-(−)-N-methyl-3-(2-methylphenoxy)-3-phenylpropylamine]
Clinical outcome of psoriasis lesions at final assessment: significant improvement
